The values below are quoted from earlier work in patent US10385108B2, “Peptide analogs of alpha-melanocyte stimulating hormone” (Genzyme Corporation, priority 2008, dated 2019).

For the data set, the target named is MC1R (Homo sapiens, UniProt Q01726). Also noted: purchased Perkin Elmer, Boston Mass; host or cells: HEK293 transfected cell lines (membrane preparations). The following applies: value quoted, not from Table 1; read-out: Ki MC1R (reported); cited from earlier work.
Sequence of MC1R (Q01726 whole entry): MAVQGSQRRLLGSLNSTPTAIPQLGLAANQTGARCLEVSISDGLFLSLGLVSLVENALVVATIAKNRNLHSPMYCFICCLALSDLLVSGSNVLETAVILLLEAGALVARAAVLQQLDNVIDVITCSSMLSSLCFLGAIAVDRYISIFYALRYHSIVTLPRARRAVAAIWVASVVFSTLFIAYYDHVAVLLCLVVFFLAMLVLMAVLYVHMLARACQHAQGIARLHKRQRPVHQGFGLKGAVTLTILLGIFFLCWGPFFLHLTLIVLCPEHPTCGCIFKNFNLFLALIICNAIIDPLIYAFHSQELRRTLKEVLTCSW

A word on the Ki: it is the dissociation constant of the complex between target and ligand, obtained from inhibition or displacement. For `NC(=O)[C@H](Cc1c[nH]c2ccccc12)NC(=O)[C@H](CCCN=C(N)N)NC(=O)[C@@H](Cc1ccccc1)NC(=O)[C@H](Cc1cnc[nH]1)NC(=O)CCCc1ccccc1` [compound 819, (Ph(CH2)3CO) HfRW], the Ki is 6 pM.
